In series [1] the test system is miR-122a. Description: Melting temperature (Tm) of LNA anti-miR/miR-122a RNA duplex. The note with it: Table 2; towards synthetic miR-122a RNA oligonucleotide with phosphorothioate linkages; PS backbone. Type of series: physicochemical, human. The protocol:
The melting temperatures were assessed towards the mature miR-122a sequence, using a synthetic miR-122a RNA oligonucleotide with phosphorothioate linkaged.
The LNA anti-miR/miR-122a oligo duplex was diluted to 3 μM in 500 μl RNase free H2O, which was then mixed with 500 μl 2× dimerization buffer (final oligo/duplex conc. 1.5 μM, 2× Tm buffer: 200 mM NaCl, 0.2 mM EDTA, 20 mM NaP, pH 7.0, DEPC treated to remove RNases). The mix was first heated to 95 degrees for 3 minutes, then allowed to cool at room temperature (RT) for 30 minutes.
Following RT incubation Tm was measured on Lambda 40 UV/VIS Spectrophotometer with peltier temperature progammer PTP6 using PE Templab software (Perkin Elmer). The temperature was ramped up from 20° C. to 95° C. and then down again to 20° C., continuously recording absorption at 260 nm. First derivative and local maximums of both the melting and annealing was used to assess melting/annealing point (Tm), both should give similar/same Tm values. For the first derivative 91 points was used to calculate the slope.

The test system of series [2] is miR-122a. Description: miR-122a level in transfected Huh-7 cells by miR-122a specific qRT-PCR. Type of series: cell-based, human. Particulars: transfected at 1 and 100 nM, 24 hours after transfection. The method, then:
The miR-122a expressing cell line Huh-7 was transfected with LNA anti-miR5 at 1 and 100 nM concentrations according to optimized lipofectamine 2000 (LF2000, Invitrogen) protocol (as follows).
Huh-7 cells were cultivated in Eagles MEM with 10% FBS, 2 mM Glutamax I, 1× non-essential amino acids, Gentamicin 25 μg/ml. The cells were seeded in 6-well plates (300000 cells per well), in a total vol. of 2.5 ml the day before transfection. At the day of transfection a solution containing LF2000 diluted in Optimem (Invitrogen) was prepared (1.2 ml optimem+3.75 μl LF2000 per well, final 2.5 μg LF2000/ml, final tot vol 1.5 ml).
LNA Oligonucleotides (LNA anti-miRs) were also diluted in optimem. 285 μl optimem+15 μl LNA oligonucleotide (10 μM oligonucleotide stock for final concentration 100 nM and 0.1 μM for final concentration 1 nM) Cells were washed once in optimem then the 1.2 ml optimem/LF2000 mix were added to each well. Cells were incubated 7 min at room temperature in the LF2000 mix where after the 300 μl oligonucleotide optimem solution was added. […]
miR-122a levels in the RNA samples were assessed on an ABI 7500 Fast real-time PCR instrument (Applied Biosystems, USA) using a miR-122a specific qRT-PCR kit, mirVana (Ambion, USA) and miR-122a primers (Ambion, USA). […]
Background: Quantitative PCR measures a nucleic acid by following its amplification.

Series [3] has as its system miR-122a. In words: miR-122a levels in mouse liver by microRNA specific qPCR. The format is in vivo. Particulars: hypercholesterolemic and normal mice; 5 mg/kg i.p. twice weekly for 5½ weeks. The method, then:
Total RNA was extracted from liver samples as described above and analysed for miR-122a levels by microRNA specific QPCR.
In vivo study: Ten groups of animals (female C57/BL6; 3 mice per group) were treated in the following manner. Group 1 animals were injected with 0.2 ml saline by i.p. on day 0, day 2 and day 4. Groups 2-10 were dosed by i.p. with three different conc. (25 mg/kg, 5 mg/kg and 1 mg/kg) of either LNA antimiR-122a/SEQ ID NO: 61 (group 2-4), LNA antimir-122a/SEQ ID NO: 66 (group 5-7) or LNA antimir-122a/SEQ ID NO: 63 (group 8-10); the LNA antimir-122a sequences are given in the Table 1. All three LNA antimiR-122a oligonucleotides target the liver-specific miR-122a. The doses were calculated from the Day 0 body weights of each animal.
The animals were sacrificed 48 hours after last dose (Day 6), retro-orbital blood was collected in tubes containing EDTA and the plasma fraction harvested and stored frozen −80° C. for cholesterol analysis. At sacrifice livers were dissected and one portion was cut into 5 mm cubes and immersed in 5 volumes of ice-cold RNAlater. A second portion was snap frozen in liquid nitrogen and stored for cryo-sectioning.
Total RNA was extracted from liver samples using Trizol reagent according to the manufacturer's recommendations (Invitrogen, USA) and analysed for miR-122a levels by microRNA-specific QPCR according to the manufacturer's recommendations (Ambion, USA). […]
NMRI female mice were treated with indicated doses of LNA-antimiR (SEQ ID NO: 61) along with a mismatch control (m, SEQ ID NO: 65), saline and antagomir (SPC3595) for three consecutive days and sacrificed 24 hours after last dose (as in example 11 “old design”, n=5). miR-122 levels were analyzed by qPCR and normalized to the saline treated group.
(§1) C57BL/6J female mice were fed on high fat diet for 13 weeks before the initiation of the SEQ ID NO: 63 treatment. […] Both hypercholesterolemic and normal mice were treated i.p. twice weekly with 5 mg/kg SEQ ID NO: 63 and the corresponding mismatch control for a study period of 5½ weeks. Blood samples were collected weekly and total plasma cholesterol was measured during the entire course of the study. Upon sacrificing the mice, liver and blood samples were prepared for total RNA extraction, miRNA and mRNA quantification, assessment of the serum transaminase levels, and liver histology.
The miR-122 and let-7a microRNA levels were quantified with TaqMan microRNA Assay (Applied Biosystems) following the manufacturer's instructions. The RT reaction was diluted ten times in water and subsequently used for real time PCR amplification according to the manufacturer's instructions. A two-fold cDNA dilution series from liver total RNA of a saline-treated animal or mock transfected cells cDNA reaction (using 2.5 times more total RNA than in samples) served as standard to ensure a linear range (Ct versus relative copy number) of the amplification. Applied Biosystems 7500 or 7900 real-time PCR instrument was used for amplification.

The subject of the next series is miR-122. In words: Total plasma cholesterol in hypercholesterolemic and normal mice, long-term treatment. The format is in vivo, mouse. Particulars: hypercholesterolemic and normal mice; 5 mg/kg i.p. twice weekly. The protocol: as §1
C57BL/6J female mice (Taconic M&B Laboratory Animals, Ejby, Denmark) were used. All substances were formulated in physiological saline (0.9% NaCl) to final concentration allowing the mice to receive an intraperitoneal injection volume of 10 ml/kg.
In the diet induced obesity study, the mice received a high fat (60EN %) diet (D12492, Research Diets) for 13 weeks to increase their blood cholesterol level before the dosing started. The dose regimen was stretched out to 5½ weeks of 5 mg/kg LNA-antimiR™ twice weekly. Blood plasma was collected once a week during the entire dosing period. After completion of the experiment the mice were sacrificed and RNA extracted from the livers for further analysis. Serum was also collected for analysis of liver enzymes.
Immediately before sacrifice retro-orbital sinus blood was collected in EDTA-coated tubes followed by isolation of the plasma fraction. Total plasma cholesterol was analysed using ABX Pentra Cholesterol CP (Horiba Group, Horiba ABX Diagnostics) according to the manufacturer's instructions.

Series [4] deals with miR-122a target genes (Bckdk, aldolase A, Nrdg3, CD320, Vldlr). In words: miR-122a target mRNA levels in mouse liver by qPCR. Type of series: in vivo. The note with it: 5 mg/kg i.p. twice weekly for 5½ weeks.

Strand notation (5' to 3'): a small letter for the sugar, then the base; units joined by * are phosphorothioate-linked, units joined directly phosphodiester-linked; [ ] holds rarer units or linkages, { } end groups; capitals alone tell only the bases. l = locked nucleic acid (LNA); [5mC] = 5-methylcytosine; d = 2'-deoxy (DNA)

As for “5′-CcAttCTgaCcCtAC-3′ (antisense l[5mC]*dC*lA*dT*dT*l[5mC]*lT*dG*dA*l[5mC]*dC*l[5mC]*dT*lA*l[5mC]) [SEQ ID NO: 64, reference compound]”, the “Tm (° C.)” value in the series with miR-122a [1] was found to be 32 °C. The “inhibition of miR-122a (in words)” value with miR-122a [2] is on record as “not found to inhibit miR-122a”.
Consider “mismatch control: the corresponding mismatch control to SEQ ID NO: 63 in Example 31; probably SEQ ID NO: 64 (antisense l[5mC]*dC*lA*dT*dT*l[5mC]*lT*dG*dA*l[5mC]*dC*l[5mC]*dT*lA*l[5mC]) [reference compound]”, for which the “miR-122 levels in liver after long-term treatment (in words)” value in the series on miR-122a [3] is “had an effect on miR-122 levels”. In the series with miR-122, the “effect on plasma cholesterol levels (in words)” value was “did not affect the plasma cholesterol levels”. Also, the “de-repression of direct miR-122 target genes (AldoA and Bckdk) after long-term treatment (in words)” value in series [4] was “did not result in any functional de-repression”.

These data come from US8440637B2, “Combination treatment for the treatment of hepatitis C virus infection” (priority 2007, dated 2013).
